Key:
[1] = target: T1, Beta-2 adrenergic receptor (Homo sapiens, UniProt P07550); experiment: biochemical
Description: Displacement of [125I]cyanopindolol from human recombinant beta2 adrenergic receptor expressed in CHO cells by filtration assay

[2] = target: T1, Beta-2 adrenergic receptor
Description: Agonist activity at human beta2 adrenergic receptor assessed as increase in cAMP level by whole cell assay

Albumin = Albumin (Homo sapiens, UniProt P02768); experiment: Binding affinity to human serum albumin by UV/HPLC analysis; format: ADME; details: isolated protein
[3] = pH 7.4
Description: Chromatographic hydrophobicity index at 2 mg/ml at pH 7.4 by rapid gradient HPLC analysis

[4] = target: Beta-2 adrenergic receptor (Cavia porcellus, UniProt Q8K4Z4)
Description: Agonist activity at beta2 adrenergic receptor in guinea pig tracheal strip assessed as inhibition of electrically-induced bronchocontractile response after 30 mins

[5] = Intrinsic clearance in rat liver microsomes assessed per mg of protein at 1 uM after 10 to 30 mins by LC/MS analysis in presence of NADPH; format: ADME, Microsome
[6] = Fraction unbound in human plasma; format: ADME, cell-free
Cavia porcellus = species: Cavia porcellus; experiment: Inhibition of serotonin-induced bronchoconstriction in guinea pig assessed as intrinsic duration of bronchodilatory activity at ED80
[7] = Intrinsic clearance in rat liver microsomes assessed per mg of protein at 1 uM after 10 to 30 mins by LC/MS analysis in presence of UDP-glucuronic acid; format: ADME, Microsome
[8] = Plasma protein binding in human at 1 to 2000 ng/mL after 3 hrs by liquid scintillation counting; format: ADME, cell-free; details: read-out: PPB (converted)

T1 sequence (P07550 whole entry): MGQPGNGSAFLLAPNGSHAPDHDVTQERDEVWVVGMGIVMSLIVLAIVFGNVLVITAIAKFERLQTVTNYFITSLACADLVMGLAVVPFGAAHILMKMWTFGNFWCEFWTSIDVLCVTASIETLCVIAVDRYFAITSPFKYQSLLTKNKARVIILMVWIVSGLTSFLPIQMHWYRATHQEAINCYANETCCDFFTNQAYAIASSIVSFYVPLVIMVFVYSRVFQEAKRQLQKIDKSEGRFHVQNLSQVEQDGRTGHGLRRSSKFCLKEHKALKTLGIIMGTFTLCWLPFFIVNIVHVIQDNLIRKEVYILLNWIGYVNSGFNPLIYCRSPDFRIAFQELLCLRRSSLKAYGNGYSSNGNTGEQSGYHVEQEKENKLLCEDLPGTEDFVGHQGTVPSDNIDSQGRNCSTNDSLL
Beta-2 adrenergic receptor (Cavia porcellus, UniProt Q8K4Z4), sequence (Q8K4Z4 whole entry): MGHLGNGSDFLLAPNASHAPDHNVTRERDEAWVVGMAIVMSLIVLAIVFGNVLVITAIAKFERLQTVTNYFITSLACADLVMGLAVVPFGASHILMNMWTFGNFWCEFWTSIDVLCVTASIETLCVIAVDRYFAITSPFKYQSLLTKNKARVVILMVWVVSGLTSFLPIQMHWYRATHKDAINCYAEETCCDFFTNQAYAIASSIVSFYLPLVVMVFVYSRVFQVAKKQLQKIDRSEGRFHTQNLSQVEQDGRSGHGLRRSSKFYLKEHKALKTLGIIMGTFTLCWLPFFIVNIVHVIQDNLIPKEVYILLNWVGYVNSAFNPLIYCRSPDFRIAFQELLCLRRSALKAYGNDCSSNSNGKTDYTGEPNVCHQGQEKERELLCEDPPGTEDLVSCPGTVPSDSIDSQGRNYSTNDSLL
Albumin, sequence (P02768 whole entry): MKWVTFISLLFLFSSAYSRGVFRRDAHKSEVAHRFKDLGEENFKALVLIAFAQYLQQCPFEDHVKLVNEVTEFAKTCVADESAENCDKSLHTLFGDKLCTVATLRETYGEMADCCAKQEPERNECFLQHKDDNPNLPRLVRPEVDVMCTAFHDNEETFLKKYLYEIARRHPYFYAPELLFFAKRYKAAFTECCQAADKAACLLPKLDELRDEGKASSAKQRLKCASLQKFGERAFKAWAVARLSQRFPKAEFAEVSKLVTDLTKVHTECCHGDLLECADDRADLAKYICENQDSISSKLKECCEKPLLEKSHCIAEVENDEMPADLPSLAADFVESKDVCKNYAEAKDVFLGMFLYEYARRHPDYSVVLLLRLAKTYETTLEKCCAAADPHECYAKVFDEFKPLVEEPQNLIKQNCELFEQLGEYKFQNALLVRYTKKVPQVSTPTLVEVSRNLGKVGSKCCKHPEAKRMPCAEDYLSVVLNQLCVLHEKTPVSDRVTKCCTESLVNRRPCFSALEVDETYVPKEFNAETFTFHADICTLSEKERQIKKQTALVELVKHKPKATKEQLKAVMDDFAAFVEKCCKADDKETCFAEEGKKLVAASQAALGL

Ki [1] | EC50 [2] | Activity (Albumin) | CHI [3] | IC50 [4] | microsomal CLint at 1 µM [5] | fraction unbound [6] | microsomal CLint at 1 µM [7] | fraction unbound at 3 h [8] | Compound | Time (Cavia porcellus)
0.522 µM | 0.039 µM | 89.8% | 54.9 | 0.048 µM | – | – | – | – | Cc1cc2c(cc1C)CC(NC[C@H](O)c1ccc(O)c3[nH]c(=O)ccc13)C2 | –
0.342 µM | 0.018 µM | 59.5% | 32.4 | 0.0023 µM | – | – | – | – | COc1cc2c(cc1OC)CC(NC[C@H](O)c1ccc(O)c3[nH]c(=O)ccc13)C2 | –
0.692 µM | 0.115 µM | 94% | 62.9 | 0.075 µM | – | – | – | – | CCc1ccc(CC)c2c1CC(NC[C@H](O)c1ccc(O)c3[nH]c(=O)ccc13)C2 | –
> 10 µM | – | – | – | – | – | – | – | – | CCc1cc2c(cc1CC)CC(NC[C@H](O)c1ccc(O[C@@H]3O[C@H](C(=O)O)[C@@H](O)[C@H](O)[C@H]3O)c3[nH]c(=O)ccc13)C2 | –
0.119 µM | 0.014 µM | 98.6% | > 70 | 0.02 µM | – | – | – | – | CCCc1cc2c(cc1CCC)CC(NC[C@H](O)c1ccc(O)c3[nH]c(=O)ccc13)C2 | –
0.112 µM | 0.025 µM | 99.5% | > 70 | > 1 µM | – | – | – | – | CCCCc1cc2c(cc1CCCC)CC(NC[C@H](O)c1ccc(O)c3[nH]c(=O)ccc13)C2 | –
– | – | 29.9% | 21 | – | – | – | – | – | CC(C)(C)NCC(O)c1ccc(O)c(CO)c1 (centres undefined) [ALBUTEROL] | –
0.076 µM | 0.011 µM | 95.7% | 59.7 | – | 76 µL/min/mg | 0.043 | 378 µL/min/mg | 0.049 | CCc1cc2c(cc1CC)CC(NC[C@H](O)c1ccc(O)c3[nH]c(=O)ccc13)C2 [INDACATEROL] | 24 h
– | – | 91.1% | 56.7 | – | – | – | – | – | OCc1cc(C(O)CNCCCCCCOCCCCc2ccccc2)ccc1O (centres undefined) [SALMETEROL] | –

Compound | Ki [1] | EC50 [2] | Activity (Albumin) | CHI [3] | IC50 [4] | microsomal CLint at 1 µM [5] | fraction unbound [6] | microsomal CLint at 1 µM [7] | fraction unbound at 3 h [8] | Time (Cavia porcellus)
O=c1ccc2c([C@@H](O)CNC3Cc4ccccc4C3)ccc(O)c2[nH]1 | 0.218 µM | 0.005 µM | 63.8% | 38.2 | 0.00083 µM | – | – | – | – | –
COc1ccc(C[C@@H](C)NC[C@H](O)c2ccc(O)c3[nH]c(=O)ccc23)cc1 [CARMOTEROL] | 0.00319 µM | 0.00076 µM | 57.1% | 37.7 | 0.0003 µM | – | – | – | – | –

Source: ChEMBL document CHEMBL1157120, “The identification of indacaterol as an ultralong-acting inhaled beta2-adrenoceptor agonist” (J Med Chem, 2010)
